Assay results published in patent US6307014A (priority 1998, dated 2001).

System: cholinergic synapse of the buccal ganglion
Type: cell-based, Aplysia californica

Question: For “Gla Cys Cys Gla Asp Gly BrW Cys Cys Thr Ala Ala OHP [P11.1]”, which “reversibility of the IPSC decrease” value is on record?
Answer: reversed by washing
